Source: ChEMBL document CHEMBL1201862, “PubChem BioAssay data set” (2004)
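Five compound concentrations were applied to cells in 96-well plates for 48 hours; endpoints were derived by simple linear interpolation of the resulting dose-response curve. GI50 = concentration required for 50% inhibition of growth.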 The source made the active and inactive calls. Rule as the data show it: active = GI50 up to about 1.1 µM and inactive = higher.

Legend:
Experiment in all cases: NCI-60 cell line screen, 48 h
[1] = test system: 786-0
[2] = test system: A498
[3] = test system: A549
[4] = test system: ACHN
[5] = test system: BT-549
[6] = test system: CAKI-1
[7] = test system: CCRF-CEM
[8] = test system: COLO 205
[9] = test system: DU-145
[10] = test system: EKVX
[11] = test system: HCC 2998
[12] = test system: HCT-116
[13] = test system: HCT-15
[14] = test system: HL-60
[15] = test system: HOP-62
[16] = test system: HOP-92
[17] = test system: HT-29
[18] = test system: Hs-578T
[19] = test system: IGROV-1
[20] = test system: K562
[21] = test system: KM12
[22] = test system: LOX IMVI
[23] = test system: M14
[24] = test system: MCF7
[25] = test system: MDA-MB-231
[26] = test system: MDA-MB-435
[27] = test system: MDA-N
[28] = test system: MOLT-4
[29] = test system: Malme-3M
[30] = test system: NCI-H226
[31] = test system: NCI-H23
[32] = test system: NCI-H460
[33] = test system: NCI-H522
[34] = test system: NCI/ADR-RES
[35] = test system: OVCAR-3
[36] = test system: OVCAR-4
[37] = test system: OVCAR-5
[38] = test system: OVCAR-8
[39] = test system: PC-3
[40] = test system: RPMI-8226
[41] = test system: RXF 393
[42] = test system: SF-268
[43] = test system: SF-295
[44] = test system: SF-539
[45] = test system: SK-MEL-28
[46] = test system: SK-MEL-2
[47] = test system: SK-MEL-5
[48] = test system: SK-OV-3
[49] = test system: SN12C
[50] = test system: SNB-19
[51] = test system: SNB-75
[52] = test system: SR
[53] = test system: SW-620
[54] = test system: T47D
[55] = test system: TK-10
[56] = test system: U-251
[57] = test system: UACC-257
[58] = test system: UACC-62
[59] = test system: UO-31
[60] = test system: DMS-273
[61] = test system: SNB-78
[62] = test system: DMS-114
[63] = test system: M19-MEL

## COC(=O)CCC(=O)NC1=C(Nc2ccc(OC)cc2)C(=O)c2ccccc2C1=O
[1]
  GI50: 17.9 µM (inactive)
[2]
  GI50: 19.2 µM (inactive)
[3]
  GI50: 14 µM (inactive)
[4]
  GI50: 15.4 µM (inactive)
[5]
  GI50: 15.4 µM (inactive)
[6]
  GI50: 16.9 µM (inactive)
[7]
  GI50: 26.1 µM (inactive)
[8]
  GI50: 14.5 µM (inactive)
[9]
  GI50: 14 µM (inactive)
[10]
  GI50: 17.7 µM (inactive)
[11]
  GI50: 20.1 µM (inactive)
[12]
  GI50: 6.58 µM (inactive)
[13]
  GI50: 7.18 µM
[14]
  GI50: 10.8 µM (inactive)
[15]
  GI50: 18.7 µM (inactive)
[16]
  GI50: 8.69 µM (inactive)
[17]
  GI50: 12.6 µM (inactive)
[18]
  GI50: 20.8 µM (inactive)
[19]
  GI50: 11.9 µM (inactive)
[20]
  GI50: 23.9 µM (inactive)
[21]
  GI50: 14.3 µM (inactive)
[22]
  GI50: 4.15 µM (inactive)
[23]
  GI50: 7.26 µM (inactive)
[24]
  GI50: 4.11 µM (inactive)
[25]
  GI50: 10.7 µM (inactive)
[26]
  GI50: 2 µM (inactive)
[27]
  GI50: 1.81 µM (inactive)
[28]
  GI50: 15.7 µM (inactive)
[29]
  GI50: 2.05 µM (inactive)
[30]
  GI50: 17.7 µM (inactive)
[31]
  GI50: 6.34 µM (inactive)
[32]
  GI50: 7.21 µM (inactive)
[33]
  GI50: 10.8 µM (inactive)
[34]
  GI50: 16.3 µM (inactive)
[35]
  GI50: 3.18 µM (inactive)
[36]
  GI50: 11.8 µM (inactive)
[37]
  GI50: 17.1 µM (inactive)
[38]
  GI50: 14.1 µM (inactive)
[39]
  GI50: 9.66 µM (inactive)
[40]
  GI50: 15.7 µM (inactive)
[41]
  GI50: 13.4 µM (inactive)
[42]
  GI50: 18.9 µM (inactive)
[43]
  GI50: 13 µM (inactive)
[44]
  GI50: 14.2 µM (inactive)
[45]
  GI50: 17.2 µM (inactive)
[46]
  GI50: 6.3 µM (inactive)
[47]
  GI50: 1.83 µM (inactive)
[48]
  GI50: 23.7 µM (inactive)
[49]
  GI50: 13.1 µM (inactive)
[50]
  GI50: 17.8 µM (inactive)
[51]
  GI50: 2.52 µM (inactive)
[52]
  GI50: 12.9 µM (inactive)
[53]
  GI50: 15.3 µM (inactive)
[54]
  GI50: 14.6 µM (inactive)
[55]
  GI50: 32.7 µM (inactive)
[56]
  GI50: 16.5 µM (inactive)
[57]
  GI50: 4.61 µM (inactive)
[58]
  GI50: 3.16 µM (inactive)
[59]
  GI50: 15.4 µM (inactive)

## Cc1cc(C)c2c(=N)c3ccccc3n(CCCCCCCCn3c4ccccc4c(=N)c4c(C)cc(C)nc43)c2n1
[1]
  GI50: 0.931 µM (active)
[2]
  GI50: 1.59 µM (inactive)
[3]
  GI50: 1.38 µM (inactive)
[4]
  GI50: 1.56 µM (inactive)
[5]
  GI50: 1.85 µM (inactive)
[6]
  GI50: 1.7 µM (inactive)
[7]
  GI50: 0.204 µM (active)
[8]
  GI50: 1.47 µM (inactive)
[9]
  GI50: 1.64 µM (inactive)
[10]
  GI50: 1.4 µM (inactive)
[11]
  GI50: 0.631 µM (active)
[12]
  GI50: 0.353 µM (active)
[13]
  GI50: 0.2 µM
[14]
  GI50: 0.433 µM (active)
[15]
  GI50: 1.23 µM (inactive)
[16]
  GI50: 1.26 µM (inactive)
[17]
  GI50: 0.224 µM (active)
[18]
  GI50: 1.81 µM (inactive)
[19]
  GI50: 1.33 µM (inactive)
[20]
  GI50: 0.19 µM (active)
[21]
  GI50: 0.358 µM (active)
[22]
  GI50: 0.515 µM (active)
[23]
  GI50: 1.66 µM (inactive)
[24]
  GI50: 0.586 µM (active)
[25]
  GI50: 1.84 µM (inactive)
[26]
  GI50: 1.54 µM (inactive)
[27]
  GI50: 1.56 µM (inactive)
[28]
  GI50: 0.258 µM (active)
[29]
  GI50: 1.74 µM (inactive)
[30]
  GI50: 1.55 µM (inactive)
[31]
  GI50: 1.46 µM (inactive)
[32]
  GI50: 0.184 µM (active)
[33]
  GI50: 1.38 µM (inactive)
[34]
  GI50: 1.6 µM (inactive)
[35]
  GI50: 1.76 µM (inactive)
[36]
  GI50: 0.627 µM (active)
[37]
  GI50: 1.89 µM (inactive)
[38]
  GI50: 1.59 µM (inactive)
[39]
  GI50: 1.38 µM (inactive)
[40]
  GI50: 0.239 µM (active)
[41]
  GI50: 1.32 µM (inactive)
[42]
  GI50: 1.74 µM (inactive)
[43]
  GI50: 1.5 µM (inactive)
[44]
  GI50: 1.78 µM (inactive)
[45]
  GI50: 1.6 µM (inactive)
[46]
  GI50: 1.75 µM (inactive)
[47]
  GI50: 1.82 µM (inactive)
[48]
  GI50: 1.73 µM (inactive)
[49]
  GI50: 1.59 µM (inactive)
[50]
  GI50: 0.282 µM (active)
[51]
  GI50: 0.596 µM (active)
[52]
  GI50: 0.127 µM (active)
[53]
  GI50: 0.238 µM (active)
[54]
  GI50: 1.77 µM (inactive)
[55]
  GI50: 1.93 µM (inactive)
[56]
  GI50: 0.553 µM (active)
[57]
  GI50: 1.75 µM (inactive)
[58]
  GI50: 1.73 µM (inactive)
[59]
  GI50: 1.46 µM (inactive)

## COC(=O)CN1CCS/C1=N/C#N
[2]
  GI50: > 100 µM (inactive)
[3]
  GI50: > 100 µM (inactive)
[7]
  GI50: > 100 µM (inactive)
[60]
  GI50: > 100 µM (inactive)
[10]
  GI50: > 100 µM (inactive)
[14]
  GI50: > 100 µM (inactive)
[15]
  GI50: > 100 µM (inactive)
[16]
  GI50: > 100 µM (inactive)
[17]
  GI50: > 100 µM (inactive)
[19]
  GI50: > 100 µM (inactive)
[20]
  GI50: > 100 µM (inactive)
[21]
  GI50: > 100 µM (inactive)
[23]
  GI50: > 100 µM (inactive)
[28]
  GI50: > 100 µM (inactive)
[30]
  GI50: > 100 µM (inactive)
[31]
  GI50: > 100 µM (inactive)
[32]
  GI50: > 100 µM (inactive)
[33]
  GI50: > 100 µM (inactive)
[37]
  GI50: > 100 µM (inactive)
[41]
  GI50: > 100 µM (inactive)
[42]
  GI50: > 100 µM (inactive)
[45]
  GI50: > 100 µM (inactive)
[48]
  GI50: > 100 µM (inactive)
[50]
  GI50: > 100 µM (inactive)
[61]
  GI50: > 100 µM (inactive)
[52]
  GI50: > 100 µM (inactive)
[55]
  GI50: > 100 µM (inactive)
[56]
  GI50: > 100 µM (inactive)
[58]
  GI50: > 100 µM (inactive)
[59]
  GI50: > 100 µM (inactive)

## COc1cc(O)c2c(c1C)C(C)(O)c1c(C)coc1C2=O (centres undefined)
[2]
  GI50: 89.7 µM (inactive)
[3]
  GI50: > 100 µM (inactive)
[4]
  GI50: > 100 µM (inactive)
[62]
  GI50: > 100 µM (inactive)
[10]
  GI50: > 100 µM (inactive)
[12]
  GI50: > 100 µM (inactive)
[14]
  GI50: 57.7 µM (inactive)
[15]
  GI50: > 100 µM (inactive)
[16]
  GI50: > 100 µM (inactive)
[17]
  GI50: > 100 µM (inactive)
[19]
  GI50: > 100 µM (inactive)
[21]
  GI50: > 100 µM (inactive)
[23]
  GI50: > 100 µM (inactive)
[63]
  GI50: > 100 µM (inactive)
[30]
  GI50: 99.8 µM (inactive)
[31]
  GI50: > 100 µM (inactive)
[32]
  GI50: > 100 µM (inactive)
[37]
  GI50: > 100 µM (inactive)
[38]
  GI50: > 100 µM (inactive)
[41]
  GI50: > 100 µM (inactive)
[43]
  GI50: > 100 µM (inactive)
[45]
  GI50: > 100 µM (inactive)
[48]
  GI50: > 100 µM (inactive)
[50]
  GI50: > 100 µM (inactive)
[61]
  GI50: > 100 µM (inactive)
[52]
  GI50: > 100 µM (inactive)
[55]
  GI50: > 100 µM (inactive)
[56]
  GI50: > 100 µM (inactive)
[57]
  GI50: > 100 µM (inactive)
[58]
  GI50: 74.1 µM (inactive)
[59]
  GI50: > 100 µM (inactive)
